The text below walks through data of PubChem BioAssay AID272 (DTP/NCI, 2004).

In this assay the test system is Lewis lung carcinoma i.m., BDF1 mice, T/C %. The assay is described as follows: NCI In Vivo Anticancer Drug Screen. Data for tumor model Lewis Lung Carcinoma (intramuscular) in B6D2F1 (BDF1) mice. The conditions noted are these: endpoint: mean tumor weight (est.), schedule: Q01DX009 (ip), vehicle: saline, higher = larger tumour. The method, boiled down:
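Tumour-bearing mice were dosed with compound, and either their survival or their tumour size was measured. Results were expressed relative to vehicle-treated controls as T/C.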

Records with an inconclusive call do not appear.

As for `CC(=O)NC(CS)C(=O)O` (configuration not stated), the T/C is 91 % of control (dose: 750.0 mg/kg/injection) and 86 % of control (dose: 1500.0 mg/kg/injection).
